The values below are quoted from earlier work in US9375436B2, “Androgen treatment in females” (priority 2004, dated 2016).

This data set concerns older mice. The conditions noted are these: cited from earlier work.

Regarding `COC1=C(OC)C(=O)C(C/C=C(\C)CC/C=C(\C)CC/C=C(\C)CC/C=C(\C)CC/C=C(\C)CC/C=C(\C)CC/C=C(\C)CC/C=C(\C)CC/C=C(\C)CCC=C(C)C)=C(C)C1=O` [CoQ10, coenzyme Q10], the oocytes numbers result is “increases oocytes numbers”.
